The values that follow come from ChEMBL document CHEMBL3886401, “Disubstituted benzothienyl-pyrrolotriazines and uses thereof” (2015).

Each structure is given as a SMILES string. pIC50: −log10 of the molar value.

Assay [1] has as its target Fibroblast growth factor receptor 1 (Homo sapiens, UniProt P11362). Put plainly: High ATP Kinase Assay: For the assay, 50 nl of each stock solution of the test compound in DMSO was pipetted into a black, low-volume 384-well microtiter plate (Greiner Bio-One, Frickenhausen, Germany) 2 Î¼l of a solution of the above FGFR-1 fusion protein in aqueous assay buffer [8 mM MOPS pH 7.0, 10 mM magnesium acetate, 1.0 mM dithiothreitol, 0.05% (w/v) bovine serum albumin (BSA), 0.07% (v/v) ….

Assay [2] concerns the target Fibroblast growth factor receptor 3 (Homo sapiens, UniProt P22607). Nature of the assay: Kinase Assay: For the assay, 50 nl of each stock solution of the test compound in DMSO was pipetted into a black, low-volume 384-well microtiter plate (Greiner Bio-One, Frickenhausen, Germany) 2 ul of a solution of the above FGFR-3 fusion protein in aqueous assay buffer [8 mM MOPS pH 7.0, 10 mM magnesium acetate, 1.0 mM dithiothreitol, 0.05% (w/v) bovine serum albumin (BSA), 0.07% (v/v) Tween-20 ….

Chain of Fibroblast growth factor receptor 1 (P11362 whole entry, the tested form may be a part): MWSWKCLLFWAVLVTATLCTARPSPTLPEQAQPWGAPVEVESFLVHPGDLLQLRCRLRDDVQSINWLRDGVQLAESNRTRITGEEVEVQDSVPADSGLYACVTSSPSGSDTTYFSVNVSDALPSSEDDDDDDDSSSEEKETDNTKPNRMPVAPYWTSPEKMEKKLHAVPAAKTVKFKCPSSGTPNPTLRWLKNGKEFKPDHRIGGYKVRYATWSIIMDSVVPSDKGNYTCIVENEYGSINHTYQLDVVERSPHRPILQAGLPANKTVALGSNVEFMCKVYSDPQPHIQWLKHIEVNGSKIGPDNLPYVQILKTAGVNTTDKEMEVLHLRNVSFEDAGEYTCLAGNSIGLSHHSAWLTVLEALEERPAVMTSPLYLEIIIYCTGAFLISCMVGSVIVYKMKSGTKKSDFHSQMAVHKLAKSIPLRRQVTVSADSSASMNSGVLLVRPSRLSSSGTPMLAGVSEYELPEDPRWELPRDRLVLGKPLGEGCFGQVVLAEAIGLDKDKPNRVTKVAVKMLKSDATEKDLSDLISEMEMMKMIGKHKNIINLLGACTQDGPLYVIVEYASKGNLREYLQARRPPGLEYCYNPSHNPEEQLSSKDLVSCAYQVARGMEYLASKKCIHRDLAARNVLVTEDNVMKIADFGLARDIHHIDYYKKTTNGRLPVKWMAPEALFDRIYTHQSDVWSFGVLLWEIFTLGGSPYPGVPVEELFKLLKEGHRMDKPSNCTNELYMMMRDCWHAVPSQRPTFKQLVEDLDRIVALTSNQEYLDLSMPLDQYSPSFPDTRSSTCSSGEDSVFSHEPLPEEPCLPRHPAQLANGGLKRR
Chain of Fibroblast growth factor receptor 3 (P22607 whole entry, the tested form may be a part): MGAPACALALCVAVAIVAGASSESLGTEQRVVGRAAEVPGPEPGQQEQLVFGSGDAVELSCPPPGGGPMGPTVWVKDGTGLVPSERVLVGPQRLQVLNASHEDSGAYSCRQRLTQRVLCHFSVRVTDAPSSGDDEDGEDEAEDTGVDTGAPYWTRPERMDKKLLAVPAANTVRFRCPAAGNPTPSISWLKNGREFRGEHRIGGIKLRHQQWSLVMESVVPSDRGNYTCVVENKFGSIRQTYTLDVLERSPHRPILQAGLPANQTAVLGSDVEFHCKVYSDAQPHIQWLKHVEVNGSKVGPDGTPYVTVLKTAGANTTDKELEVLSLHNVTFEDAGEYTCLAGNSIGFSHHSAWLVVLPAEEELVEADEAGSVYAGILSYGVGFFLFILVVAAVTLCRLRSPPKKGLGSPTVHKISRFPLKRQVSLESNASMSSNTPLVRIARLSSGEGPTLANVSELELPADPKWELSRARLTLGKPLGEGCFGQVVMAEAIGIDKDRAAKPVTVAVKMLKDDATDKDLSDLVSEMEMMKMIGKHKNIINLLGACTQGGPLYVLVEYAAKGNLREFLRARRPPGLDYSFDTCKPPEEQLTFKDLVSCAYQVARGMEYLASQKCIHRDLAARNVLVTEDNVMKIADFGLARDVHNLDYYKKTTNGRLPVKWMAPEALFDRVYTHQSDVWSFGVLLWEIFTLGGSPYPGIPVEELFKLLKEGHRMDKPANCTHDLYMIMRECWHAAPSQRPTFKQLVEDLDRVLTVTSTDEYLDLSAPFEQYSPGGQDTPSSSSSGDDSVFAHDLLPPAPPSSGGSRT

For `COCc1c(-c2cc3cc(C)cc(OC)c3s2)c2c(N)ncnn2c1C#N`, the pIC50 in assay [1] is 7.26; in assay [2] it was 7.24.

`COCc1c(CN2CCNC(=O)C2)c(-c2cc3cc(C)cc(OC)c3s2)c2c(N)ncnn12` gave a pIC50 in assay [1] of 8.41. Consider `COc1cc(C)cc2cc(-c3c(CNC(C)=O)c(CNC(C)=O)n4ncnc(N)c34)sc12`, for which the pIC50 was 8.85 in assay [1] and 9.15 in assay [2]. In turn, `CCOCc1c(-c2cc3cc(C)cc(OC)c3s2)c2c(N)ncnn2c1C#N` showed a pIC50 in assay [1] of 7.41. On the same count and under the same terms, the figure for `CCOCc1c(CN2CCNC(=O)C2)c(-c2cc3cc(C)cc(OC)c3s2)c2c(N)ncnn12` is 8.10.
